Laboratory results published in US20210007356A1, “IMIDE DERIVATIVE AND FUNGICIDE CONTAINING SAID DERIVATIVE AS ACTIVE INGREDIENT” (HOKKO CHEMICAL INDUSTRY CO., LTD., priority 2018, published 2021).
Where two headings read alike, the source gives them in different places.

Key:
[1] = system: rice sheath blight fungus (Thanatephorus cucumeris); assay: Test Example 6: control effect against rice sheath blight by box treatment (flowable formulation); settings: flowable 5,000 ppm, 50 mL irrigation of nursery box, paddy rice; inoculated after 3 weeks; 7 days after inoculation
[2] = system: rice blast fungus (Pyricularia grisea); format: in vivo; settings: flowable 1,000 ppm, 1 mL dripped in paddy water, inoculated after 1 week, 7 days after inoculation
[3] = system: rice sheath blight fungus (Thanatephorus cucumeris); assay: Test Example 10: control effect against rice sheath blight by water surface application (flowable formulation); settings: flowable 1,000 ppm, 1 mL dripped in paddy water, inoculated after 1 week, 7 days after inoculation
[4] = system: barley powdery mildew fungus (Erysiphe graminis); assay: Test Example 2: control effect against barley powdery mildew by foliage application; format: in vivo; settings: wettable powder diluted to 100 ppm, 10 mL per pot foliage spray on barley; inoculated day after; 7 days after inoculation
[5] = system: rice blast fungus (Pyricularia grisea); format: in vivo; settings: 5 g of granule on nursery box, paddy rice; inoculated after 3 weeks; 7 days after inoculation
[6] = system: rice sheath blight fungus (Thanatephorus cucumeris); assay: Test Example 8: control effect against rice sheath blight by box treatment (granule); settings: 5 g of granule on nursery box, paddy rice; inoculated after 3 weeks; 7 days after inoculation
[7] = system: rice blast fungus (Pyricularia grisea); format: in vivo; settings: flowable 5,000 ppm, 50 mL irrigation of nursery box, paddy rice; inoculated after 3 weeks; 7 days after inoculation

Row | Compound | evaluation value of control effect (from control value, lesion height) [1] | evaluation value of control effect (from control value, number of lesions) [2] | evaluation value of control effect (from control value, lesion height) [3] | evaluation value of control effect (from control value, lesion area percentage) [4] | evaluation value of control effect (from control value, number of lesions) [5] | evaluation value of control effect (from control value, lesion height) [6] | evaluation value of control effect (from control value, number of lesions) [7]
1 | CC(C)CCc1ccccc1N(C(=O)c1cn(C)nc1C(F)F)C(=O)c1snc(Cl)c1Cl [1-34] | 5 | 5 | 5 | 4 | 5 | 5 | 5
2 | Cc1cc(C(=O)N(C(=O)c2cn(C)nc2C(F)F)c2ccccc2C(C)CC(C)C)sn1 (centres unmarked) [1-136] | 5 | 5 | 5 | 4 | 5 | 5 | 5
3 | Cc1nnsc1C(=O)N(C(=O)c1cn(C)nc1C(F)F)c1ccccc1CCC(C)C [1-145] | 5 | 5 | 5 | 5 | 5 | 5 | 5
4 | Cc1nn(C)c(F)c1C(=O)N(C(=O)c1snnc1C(F)F)c1ccccc1C(C)CC(C)C (centres unmarked) [1-258] | 5 | 5 | 5 | 4 | 5 | 5 | 5
5 | Cc1nc(C(F)F)c(C(=O)N(C(=O)c2cn(C)nc2C(F)F)c2ccccc2C(C)CC(C)C)s1 (centres unmarked) [1-314] | 5 | 5 | 5 | 4 | 5 | 5 | 5
6 | CC(C)CC(C)c1ccccc1N(C(=O)c1cn(C)nc1C(F)F)C(=O)c1scnc1C(F)(F)F (centres unmarked) [1-333] | 5 | 5 | 5 | 4 | 5 | 5 | 5
7 | CC(C)CC(C)c1ccccc1N(C(=O)c1cn(C)nc1C(F)F)C(=O)c1scnc1C(F)F (centres unmarked) [1-341] | 5 | 5 | 5 | 4 | 5 | 5 | 5
8 | CC(C)CC(C)c1sccc1N(C(=O)c1cn(C)nc1C(F)(F)F)C(=O)c1snc(Cl)c1Cl (centres unmarked) [5-1, 3,4-Dichloro-N-{2-(1,3-dimethylbutyl)-3-thienyl}-N-{1-methyl-3-(trifluoromethyl)pyrazole-4-carbonyl}isothiazole-5-carboxamide] | – | 5 | – | 5 | 5 | – | 5
9 | CCC(C)Oc1cccc(N(C(=O)c2sc(C)nc2C(F)F)C(=O)c2snc(Cl)c2Cl)c1C (centres unmarked) [7-125] | – | 5 | – | 4 | 5 | – | 5
10 | CCc1nc(C(F)F)c(C(=O)N(C(=O)c2snc(Cl)c2Cl)c2ccccc2C(C)CC(C)C)s1 (centres unmarked) [7-132] | – | 5 | – | 4 | 5 | – | 5
11 | Cc1nc(C(F)F)c(C(=O)N(C(=O)c2cccc3nnsc23)c2ccccc2C(C)CC(C)C)s1 (centres unmarked) [7-200] | – | 5 | – | 4 | 5 | – | 5
12 | Cc1nc(C(F)F)c(C(=O)N(C(=O)c2snc(Cl)c2Cl)c2ccsc2C(C)CC(C)C)s1 (centres unmarked) [11-8] | – | 5 | – | 5 | 5 | – | 5
13 | CC(C)CC(C)c1ccccc1N(C(=O)c1cccnc1C(F)(F)F)C(=O)c1snc(Cl)c1Cl (centres unmarked) [13-1] | – | 5 | – | 5 | 5 | – | 5
14 | CC(C)CC(C)c1ccccc1N(C(=O)c1cccnc1F)C(=O)c1snc(Cl)c1Cl (centres unmarked) [13-51] | – | 5 | – | 4 | 5 | – | 5
15 | Cc1ncccc1C(=O)N(C(=O)c1snc(Cl)c1Cl)c1ccccc1C(C)CC(C)C (centres unmarked) [13-52] | – | 5 | – | 4 | 5 | – | 5
16 | CC1CC(C)(C)c2cccc(N(C(=O)c3cn(C)nc3C(F)F)C(=O)c3cccc4nnsc34)c21 (centres unmarked) [25-73] | – | 5 | – | 5 | 5 | – | 5
17 | CC1CC(C)(C)c2cccc(N(C(=O)c3cn(C)nc3C(F)F)C(=O)c3scnc3C(F)F)c21 (centres unmarked) [25-109] | – | 5 | – | 4 | 5 | – | 5
18 | Cc1nn(C)c(Cl)c1C(=O)N(C(=O)c1snnc1C(F)F)c1cccc2c1C(C)OC2(C)C (centres unmarked) [25-117] | 5 | 5 | 5 | – | 5 | 5 | 5
19 | CCc1nc(C(F)F)c(C(=O)N(C(=O)c2sc(C)nc2C(F)F)c2cccc3c2C(C)OC3(C)C)s1 (centres unmarked) [26-70] | 5 | 5 | 5 | – | 5 | 5 | 5
20 | Cc1nc(C(F)F)c(C(=O)N(C(=O)c2cc(Cl)c(Cl)s2)c2cccc3c2C(C)OC3(C)C)s1 (centres unmarked) [26-90] | 5 | 5 | 5 | – | 5 | 5 | 5
21 | Cc1nc(C(F)F)c(C(=O)N(C(=O)c2onc(Cl)c2Cl)c2cccc3c2C(C)OC3(C)C)s1 (centres unmarked) [26-92] | 5 | 5 | 5 | – | 5 | 5 | 5
22 | CC1OC(C)(C)c2cccc(N(C(=O)c3cccnc3C(F)F)C(=O)c3cccc4nnsc34)c21 (centres unmarked) [27-28] | 5 | 5 | 5 | – | 5 | 5 | 5
23 | Cc1nc(C(F)F)c(C(=O)N(C(=O)c2cccnc2C(F)F)c2cccc3c2C(C)OC3(C)C)s1 (centres unmarked) [27-36] | 5 | 5 | 5 | – | 5 | 5 | 5
